Numbers after ± are expanded uncertainties.
Conditions: Liquid, flow method with low res time

With `OCCc1ccccc1` [2-phenylethanol] the “vapor or sublimation pressure” value (488.7 K) was 91.7 ± 3.7 kPa, the “vapor or sublimation pressure” value (515.5 K) was 174.9 ± 7 kPa and the “vapor or sublimation pressure” value (547.5 K) was 340.6 ± 14 kPa. For the same compound, the “vapor or sublimation pressure” value (587.4 K) was 692.9 ± 28 kPa, the “vapor or sublimation pressure” value (634.4 K) was 1382 ± 55 kPa and the “vapor or sublimation pressure” value (689.8 K) was 2762 ± 110 kPa. The “vapor or sublimation pressure” value (711.2 K) was 3451 ± 140 kPa, the “vapor or sublimation pressure” value (719.2 K) was 3793 ± 150 kPa and the “vapor or sublimation pressure” value (722.5 K) was 3966 ± 160 kPa. For the same compound, the Critical pressure was 3990 ± 160 kPa and the Critical temperature was 723.5 ± 4 K.

For `C=CCO` [2-propenol], the “vapor or sublimation pressure” value (438.1 K) was 759.8 ± 82 kPa, the “vapor or sublimation pressure” value (465.2 K) was 1383 ± 150 kPa and the “vapor or sublimation pressure” value (498.5 K) was 2595 ± 280 kPa. For the same compound, the “vapor or sublimation pressure” value (531.5 K) was 4482 ± 480 kPa, the “vapor or sublimation pressure” value (545.4 K) was 5516 ± 590 kPa and the “vapor or sublimation pressure” value (546.5 K) was 5599 ± 600 kPa. It also gave a Critical pressure of 5640 ± 330 kPa and a Critical temperature of 547.1 ± 4 K.

In the case of `CCCCCCCCCCCCS` [1-dodecanethiol], the “vapor or sublimation pressure” value (544.5 K) is reported as 89.98 ± 3.6 kPa, the “vapor or sublimation pressure” value (577.8 K) is reported as 178.6 ± 7.2 kPa and the “vapor or sublimation pressure” value (614.7 K) is reported as 348.2 ± 14 kPa. The “vapor or sublimation pressure” value (659.9 K) was 694.3 ± 28 kPa, the “vapor or sublimation pressure” value (688.6 K) was 1039 ± 42 kPa and the “vapor or sublimation pressure” value (712.4 K) was 1384 ± 55 kPa. The “vapor or sublimation pressure” value (729.8 K) was 1726 ± 69 kPa, the Critical pressure was 1810 ± 70 kPa and the Critical temperature was 733.7 ± 4 K.

In the case of `CCCCCCCCCCCCCCCCCCCCCCCCCCCCCC` [triacontane], the “vapor or sublimation pressure” value (713.5 K) is reported as 82.32 ± 3.3 kPa, the “vapor or sublimation pressure” value (737.8 K) is reported as 127.8 ± 5.1 kPa and the “vapor or sublimation pressure” value (761.2 K) is reported as 190.2 ± 7.6 kPa. The “vapor or sublimation pressure” value (786 K) was 282.4 ± 11 kPa and the “vapor or sublimation pressure” value (809.6 K) was 414.1 ± 17 kPa.

With `CSc1ccccc1` [1-phenyl-1-thiaethane] the “vapor or sublimation pressure” value (463.7 K) was 90.87 ± 3.7 kPa, the “vapor or sublimation pressure” value (492.1 K) was 177.3 ± 7.1 kPa and the “vapor or sublimation pressure” value (526.3 K) was 354.1 ± 14 kPa. For the same compound, the “vapor or sublimation pressure” value (566.1 K) was 696.4 ± 28 kPa, the “vapor or sublimation pressure” value (613.6 K) was 1383 ± 55 kPa and the “vapor or sublimation pressure” value (671.1 K) was 2765 ± 110 kPa. The “vapor or sublimation pressure” value (691.7 K) was 3454 ± 140 kPa, the “vapor or sublimation pressure” value (699.9 K) was 3799 ± 150 kPa and the “vapor or sublimation pressure” value (704.3 K) was 3964 ± 160 kPa. For the same compound, the Critical pressure was 4050 ± 160 kPa and the Critical temperature was 705.9 ± 4 K.

In the case of `CC(O)COC(C)(C)C` (stereo unspecified) [1-(1,1-dimethylethoxy)-2-propanol], the “vapor or sublimation pressure” value (450.5 K) is reported as 200.9 ± 8.1 kPa, the “vapor or sublimation pressure” value (472.9 K) is reported as 337.8 ± 14 kPa and the “vapor or sublimation pressure” value (510.2 K) is reported as 689.5 ± 28 kPa. For the same compound, the “vapor or sublimation pressure” value (553.3 K) was 1380 ± 55 kPa, the “vapor or sublimation pressure” value (592.7 K) was 2414 ± 97 kPa and the “vapor or sublimation pressure” value (597.5 K) was 2586 ± 100 kPa. The “vapor or sublimation pressure” value (598.5 K) was 2668 ± 110 kPa, the Critical pressure was 2720 ± 110 kPa and the Critical temperature was 600.7 ± 4 K.

With `c1ccc2ccccc2c1` [naphthalene] the “vapor or sublimation pressure” value (502.2 K) was 128.9 ± 5.2 kPa, the “vapor or sublimation pressure” value (552.2 K) was 337.8 ± 14 kPa and the “vapor or sublimation pressure” value (646.6 K) was 1338 ± 54 kPa. The “vapor or sublimation pressure” value (731.8 K) was 3445 ± 140 kPa, the “vapor or sublimation pressure” value (741.5 K) was 3793 ± 150 kPa and the “vapor or sublimation pressure” value (745.9 K) was 3958 ± 160 kPa. The Critical pressure was 4130 ± 170 kPa and the Critical temperature was 750 ± 4 K.
